Where two headings read alike, the source gives them in different places.
Columns and labels:
[1] = system: ZF4 (fibroblasts) cell line; assay: Neutral red, fluorescence (NRf), AB/CFDA/NR multiplex, lysosome stability; format: cell-based, zebrafish (Danio rerio); conditions: Danio rerio, Fibroblast
[2] = system: ZF4 (fibroblasts) cell line; assay: MTS assay (MTS/BCA multiplex), NAD(P)H metabolism; format: cell-based, zebrafish (Danio rerio); conditions: Danio rerio, Fibroblast
[3] = system: ZF4 (fibroblasts) cell line; assay: alamarBlue (AB) endpoint of AB/CFDA/NR multiplex, cellular respiration; format: cell-based, zebrafish (Danio rerio); conditions: Danio rerio, Fibroblast
[4] = system: ZFL (hepatocytes) cell line; assay: cells; format: cell-based, zebrafish (Danio rerio); conditions: Danio rerio, Hepatocyte
ZF4 and ZFL cell lines = assay: Cytotoxicity assays, all endpoints, both cell lines (mean/range); format: cell-based, zebrafish (Danio rerio); conditions: 48 h, mean of all cytotoxicity endpoints (without LDH) in ZF4 and ZFL
[5] = system: ZFL (hepatocytes) cell line; assay: cells; format: cell-based, zebrafish (Danio rerio); conditions: Danio rerio, Hepatocyte; remark: listed apart in the source
[6] = system: ZFL (hepatocytes) cell line; assay: cells; format: cell-based, zebrafish (Danio rerio); conditions: Danio rerio, Hepatocyte; remark: listed apart in the source
[7] = system: zebrafish cell lines vs zebrafish embryo; assay: Potency ratios IC50;x/EC50;x (cytotoxicity assays vs mFET); parameters: species or system zebrafish (Danio rerio)
[8] = system: ZFL (hepatocytes) cell line; assay: cells; format: cell-based, zebrafish (Danio rerio); conditions: Danio rerio, Hepatocyte; remark: listed apart in the source
[9] = system: ZF4 (fibroblasts) cell line; assay: BCA assay (MTS/BCA multiplex), protein amount; format: cell-based, zebrafish (Danio rerio); conditions: Danio rerio, Fibroblast
[10] = system: ZFL (hepatocytes) cell line; assay: cells; format: cell-based, zebrafish (Danio rerio); conditions: Danio rerio, Hepatocyte; remark: listed apart in the source
[11] = system: ZFL (hepatocytes) cell line; assay: cells; format: cell-based, zebrafish (Danio rerio); conditions: Danio rerio, Hepatocyte; remark: listed apart in the source
[12] = ref Comptox, PubChem or DrugBank; cited from earlier work
[13] = system: ZF4 (fibroblasts) cell line; assay: Neutral red, absorbance (NRa), AB/CFDA/NR multiplex, lysosome stability; format: cell-based, zebrafish (Danio rerio); conditions: Danio rerio, Fibroblast
zebrafish embryos [14] = assay: animal or person; format: in vivo, zebrafish (Danio rerio); conditions: for EC50: Danio rerio
[15] = system: ZFL (hepatocytes) cell line; assay: cells; format: cell-based, zebrafish (Danio rerio); conditions: Danio rerio, Hepatocyte; remark: listed apart in the source
zebrafish embryos [16] = system: zebrafish embryos; parameters: method as in earlier work; conditions: nominal, cited from earlier work
[17] = system: ZF4 (fibroblasts) cell line; assay: ATP assay (ATP/LDH multiplex), ATP metabolism; format: cell-based, zebrafish (Danio rerio); conditions: Danio rerio, Fibroblast
[18] = system: ZF4 (fibroblasts) cell line; assay: CFDA endpoint of AB/CFDA/NR multiplex, membrane stability; format: cell-based, zebrafish (Danio rerio); conditions: Danio rerio, Fibroblast

Cc1cc(-n2c(=O)[nH]c(=O)n(C)c2=O)ccc1Oc1ccc(SC(F)(F)F)cc1 [Toltrazuril, toltrazuril]
IC50 ([1]; NR-fluo - ZF4, log10 of IC50, read-out: LogIC50 (converted)): 81.3 µM
IC50 ([1]; NR-fluo - ZF4, read-out: IC50): 81.3 µM
IC50 ([1]; ZF4, 48 h exposure, nominal, log10, read-out: logIC50 (log10 IC50;nom) NRf (converted)): 81.3 µM
IC50 ([1]; ZF4, 48 h exposure, nominal, read-out: IC50;nom NRf): 81.3 µM
IC50 ([2]; MTS - ZF4, log10 of IC50, read-out: LogIC50 (converted)): 175 µM
IC50 ([2]; MTS - ZF4, read-out: IC50): 175 µM
IC50 ([2]; ZF4, 48 h exposure, nominal, log10, read-out: logIC50 (log10 IC50;nom) MTS (converted)): 174 µM
IC50 ([2]; ZF4, 48 h exposure, nominal, read-out: IC50;nom MTS): 175 µM
IC50 ([3]; AB - ZF4, log10 of IC50, read-out: LogIC50 (converted)): 97.5 µM
IC50 ([3]; AB - ZF4, read-out: IC50): 97.5 µM
IC50 ([3]; ZF4, 48 h exposure, nominal, log10, read-out: logIC50 (log10 IC50;nom) AB (converted)): 97.7 µM
IC50 ([3]; ZF4, 48 h exposure, nominal, read-out: IC50;nom AB): 97.5 µM
IC50 ([4]; CFDA - ZFL, log10 of IC50, read-out: LogIC50 (converted)): 122 µM
IC50 ([4]; CFDA - ZFL, read-out: IC50): 122 µM
IC50 ([4]; ZFL, 48 h exposure, nominal, log10, read-out: logIC50 (log10 IC50;nom) CFDA (converted)): 123 µM
IC50 ([4]; ZFL, 48 h exposure, nominal, read-out: IC50;nom CFDA): 122 µM
IC50 (ZF4 and ZFL cell lines; Danio rerio, log10, read-out: Mean log IC50nom (converted)): 85.1 µM
Mean log IC50nom (ZF4 and ZFL cell lines; log10, listed as Tol): -4.074 M
IC50 ([5]; AB - ZFL, log10 of IC50, read-out: LogIC50 (converted)): 69.6 µM
IC50 ([5]; AB - ZFL, read-out: IC50): 69.6 µM
IC50 ([5]; ZFL, 48 h exposure, nominal, log10, read-out: logIC50 (log10 IC50;nom) AB (converted)): 69.2 µM
IC50 ([5]; ZFL, 48 h exposure, nominal, read-out: IC50;nom AB): 69.6 µM
IC50 ([6]; MTS - ZFL, log10 of IC50, read-out: LogIC50 (converted)): 62.8 µM
IC50 ([6]; MTS - ZFL, read-out: IC50): 62.8 µM
IC50 ([6]; ZFL, 48 h exposure, nominal, log10, read-out: logIC50 (log10 IC50;nom) MTS (converted)): 63.1 µM
IC50 ([6]; ZFL, 48 h exposure, nominal, read-out: IC50;nom MTS): 62.8 µM
in vitro toxicity (IC50;free) higher than EC50;nom ([7]; ZF4 NRa endpoint vs embryo): 2 fold
potency ratio IC50;nom/EC50;nom (median) ([7]; median over cytotoxicity endpoints, nominal, 48 h cells / 48 hpf mFET): 6.54
IC50 ([8]; ATP - ZFL, log10 of IC50, read-out: LogIC50 (converted)): 20.3 µM
IC50 ([8]; ATP - ZFL, read-out: IC50): 20.3 µM
IC50 ([8]; ZFL, 48 h exposure, nominal, log10, read-out: logIC50 (log10 IC50;nom) ATP (converted)): 20.4 µM
IC50 ([8]; ZFL, 48 h exposure, nominal, read-out: IC50;nom ATP): 20.3 µM
IC50 ([9]; BCA - ZF4, log10 of IC50, read-out: LogIC50 (converted)): 141 µM
IC50 ([9]; BCA - ZF4, read-out: IC50): 141 µM
IC50 ([9]; ZF4, 48 h exposure, nominal, log10, read-out: logIC50 (log10 IC50;nom) BCA (converted)): 141 µM
IC50 ([9]; ZF4, 48 h exposure, nominal, read-out: IC50;nom BCA): 141 µM
IC50 ([10]; NR-abs - ZFL, log10 of IC50, read-out: LogIC50 (converted)): 84.7 µM
IC50 ([10]; NR-abs - ZFL, read-out: IC50): 84.7 µM
IC50 ([10]; ZFL, 48 h exposure, nominal, log10, read-out: logIC50 (log10 IC50;nom) NRa (converted)): 85.1 µM
IC50 ([10]; ZFL, 48 h exposure, nominal, read-out: IC50;nom NRa): 84.7 µM
IC50 ([11]; NR-fluo - ZFL, log10 of IC50, read-out: LogIC50 (converted)): 78.7 µM
IC50 ([11]; NR-fluo - ZFL, read-out: IC50): 78.7 µM
IC50 ([11]; ZFL, 48 h exposure, nominal, log10, read-out: logIC50 (log10 IC50;nom) NRf (converted)): 79.4 µM
IC50 ([11]; ZFL, 48 h exposure, nominal, read-out: IC50;nom NRf): 78.7 µM
BCF [12]: 14.3
Physiological charge [12]: 0
Water Solubility [12]: insoluble
logKoa [12]: 10.2
logKow [12]: 4.31
pKa (Strongest Acidic) [12]: 6.47
w_solubility (water solubility) [12]: 106 µM
IC50 ([13]; NR-abs - ZF4, log10 of IC50, read-out: LogIC50 (converted)): 49.4 µM
IC50 ([13]; NR-abs - ZF4, read-out: IC50): 49.4 µM
IC50 ([13]; ZF4, 48 h exposure, nominal, log10, read-out: logIC50 (log10 IC50;nom) NRa (converted)): 49 µM
IC50 ([13]; ZF4, 48 h exposure, nominal, read-out: IC50;nom NRa): 49.4 µM
IC50 ([13]; ZF4 cell line, NRa endpoint, nominal, read-out: IC50;nom): 21 µg/mL
difference in toxicity (EC50;nom) between 48 hpf and 144 hpf (zebrafish embryos [14]; 48 hpf time point less sensitive than 144 hpf): marginally more toxic
log EC50;nom (mFET) (zebrafish embryos [14]; 48 hpf, nominal, log10, listed as Tol): -4.897 M
EC50 (zebrafish embryos [14]; 48 hpf, nominal, log10, read-out: log EC50;nom (mFET) (converted)): 12.6 µM
EC50 (zebrafish embryos [14]; 48 hpf, nominal, read-out: EC50;nom (embryo)): 5.4 µg/mL
EC50 (zebrafish embryos [14]; read-out: EC50 48hpf): 12.7 µM
EC50 (zebrafish embryos [14]; read-out: EC50;nom (mFET)): 12.7 µM
IC50 ([15]; BCA - ZFL, log10 of IC50, read-out: LogIC50 (converted)): 294 µM
IC50 ([15]; BCA - ZFL, read-out: IC50): 294 µM
IC50 ([15]; ZFL, 48 h exposure, nominal, log10, read-out: logIC50 (log10 IC50;nom) BCA (converted)): 295 µM
IC50 ([15]; ZFL, 48 h exposure, nominal, read-out: IC50;nom BCA): 294 µM
EC50 (zebrafish embryos [16]; 144 hpf, converted): 2.59 µM
logEC50 144 hpf (zebrafish embryos [16]; log10): -5.5874 M
IC50 ([17]; ATP - ZF4, log10 of IC50, read-out: LogIC50 (converted)): 43.8 µM
IC50 ([17]; ATP - ZF4, read-out: IC50): 43.8 µM
IC50 ([17]; ZF4, 48 h exposure, nominal, log10, read-out: logIC50 (log10 IC50;nom) ATP (converted)): 43.7 µM
IC50 ([17]; ZF4, 48 h exposure, nominal, read-out: IC50;nom ATP): 43.8 µM
IC50 ([18]; CFDA - ZF4, log10 of IC50, read-out: LogIC50 (converted)): 104 µM
IC50 ([18]; CFDA - ZF4, read-out: IC50): 104 µM
IC50 ([18]; ZF4, 48 h exposure, nominal, log10, read-out: logIC50 (log10 IC50;nom) CFDA (converted)): 105 µM
IC50 ([18]; ZF4, 48 h exposure, nominal, read-out: IC50;nom CFDA): 104 µM

From article PMC7872314, “Modeling Bioavailable Concentrations in Zebrafish Cell Lines and Embryos Increases the Correlation of Toxicity Potencies across Test Systems” (Environmental Science & Technology, 2020)
